Experimental data published in article PMC11450741, “Functional Characterization of an Arylsulfonamide-Based Small-Molecule Inhibitor of the NLRP3 Inflammasome” (ACS Chemical Neuroscience, 2024).

Biological target: T1, NLRP3 (Mus musculus, UniProt Q8R4B8)
T1 construct: full length recombinant NLRP3 protein (N-Flag, expressed in Expi293F cells)
Experiment: intrinsic fluorescence spectroscopy titration (ex […]/em […] nm); supported by Western blot thermal shift ([…] to […] °C)
Assay type: binding

T1 sequence (Q8R4B8 whole entry): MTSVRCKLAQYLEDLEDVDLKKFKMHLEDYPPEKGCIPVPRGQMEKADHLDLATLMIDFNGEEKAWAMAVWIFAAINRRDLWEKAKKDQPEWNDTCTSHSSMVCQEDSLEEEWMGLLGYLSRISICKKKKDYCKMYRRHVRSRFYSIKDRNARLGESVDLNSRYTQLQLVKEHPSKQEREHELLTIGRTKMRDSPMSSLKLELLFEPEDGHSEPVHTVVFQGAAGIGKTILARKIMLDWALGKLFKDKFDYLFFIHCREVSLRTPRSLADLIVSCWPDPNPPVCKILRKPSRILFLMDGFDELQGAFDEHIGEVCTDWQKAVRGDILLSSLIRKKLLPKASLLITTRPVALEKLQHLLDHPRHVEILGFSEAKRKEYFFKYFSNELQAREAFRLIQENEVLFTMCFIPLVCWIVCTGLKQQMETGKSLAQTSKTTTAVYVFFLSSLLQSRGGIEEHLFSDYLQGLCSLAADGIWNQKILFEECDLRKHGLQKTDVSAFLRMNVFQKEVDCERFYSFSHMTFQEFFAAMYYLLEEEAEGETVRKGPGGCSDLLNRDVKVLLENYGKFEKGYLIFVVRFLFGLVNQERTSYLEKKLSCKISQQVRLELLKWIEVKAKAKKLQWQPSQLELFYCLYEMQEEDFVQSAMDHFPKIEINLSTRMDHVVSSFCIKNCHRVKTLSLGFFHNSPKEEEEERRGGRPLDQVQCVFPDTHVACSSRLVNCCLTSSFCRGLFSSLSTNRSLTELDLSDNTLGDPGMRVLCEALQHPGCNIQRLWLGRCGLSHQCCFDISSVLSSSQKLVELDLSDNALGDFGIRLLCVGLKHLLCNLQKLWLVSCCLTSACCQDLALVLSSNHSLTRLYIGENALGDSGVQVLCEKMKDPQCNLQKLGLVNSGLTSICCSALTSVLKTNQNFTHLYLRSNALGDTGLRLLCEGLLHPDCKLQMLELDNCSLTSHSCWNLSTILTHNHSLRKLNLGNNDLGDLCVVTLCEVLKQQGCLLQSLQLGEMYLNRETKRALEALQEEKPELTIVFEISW

- Kd: 0.56 ± 0.0303 µM
Structure (SMILES): CCCOc1ccc(Cl)cc1CN(CCc1ccc(S(=O)(=O)N2CCOCC2)cc1)C(=O)Cc1ccsc1 [YM-I-26]
